Data from ChEMBL document CHEMBL5050844 (2019).

What was measured:
[1] = Induction of anti-CD3 antibodies-stimulated human CD4+ T cell activation at 10 uM assessed fold increase in CD69 expression measured by flow cytometry analysis; format: functional, T cell line; also: reference of the scale not given here
[2] = Induction of anti-CD3 antibodies-stimulated human T cell activation at 10 uM assessed fold increase in IFN-gamma secretion measured by ELISA assay; format: functional, T cell line; also: reference of the scale not given here
[3] = Induction of anti-CD3/CD28 antibodies-stimulated human T cell activation at 10 uM assessed fold increase in TNF-alpha secretion measured by ELISA assay; format: functional, T cell line
[4] = Induction of allogenic human T cell activation at 10 uM assessed fold increase in cell proliferation; format: functional, T cell line
[5] = system: B cell; experiment: Induction of anti-IgM-stimulated human CD20+ B cell activation at 10 to 1000 uM assessed as increase in CD69 expression measured as mean fluorescence intensity AUC by flow cytometry analysis; format: functional, cell-based; settings: dose 10-1000 µM
[6] = Induction of anti-CD3/CD28 antibodies-stimulated human T cell activation at 1.11 uM assessed fold increase in IFN-gamma secretion measured by ELISA assay; format: functional, T cell line
[7] = Induction of allogenic human T cell activation at 3 uM assessed fold increase in cell proliferation; format: functional, T cell line
[8] = Induction of anti-CD3/CD28 antibodies-stimulated human T cell activation at 1.11 uM assessed fold increase in GM-CSF secretion measured by ELISA assay; format: functional, T cell line
[9] = Induction of activation of human CD56+ CD3- NK cells co-cultured with human K562 cells in 1:1 ratio and assessed as increase in TNF-alpha secretion at 2.5 uM measured by ELISA assay; format: functional, Natural killer cell
[10] = Induction of anti-CD3/CD28 antibodies-stimulated human T cell activation at 0.3 uM assessed fold increase in IL-2 secretion measured by ELISA assay; format: functional, T cell line
[11] = Induction of anti-CD3/CD28 antibodies-stimulated human CD8+ T cell activation at 10 uM assessed fold increase in CD69 expression measured by flow cytometry analysis; format: functional, T cell line
[12] = Induction of anti-CD3 antibodies-stimulated human CD4+ T cell activation at 1.11 uM assessed fold increase in CD69 expression measured by flow cytometry analysis; format: functional, T cell line; also: reference of the scale not given here
[13] = Induction of anti-CD3 antibodies-stimulated human T cell activation at 10 uM assessed fold increase in TNF-alpha secretion measured by ELISA assay; format: functional, T cell line; also: reference of the scale not given here
[14] = Induction of anti-CD3 antibodies-stimulated human T cell activation at 1 uM assessed fold increase in IL-2 secretion measured by ELISA assay; format: functional, T cell line; also: reference of the scale not given here
[15] = Induction of activation of human CD56+ CD3- NK cells co-cultured with human K562 cells in 1:1 ratio and assessed as increase in IFN-gamma secretion at 10 uM measured by ELISA assay; format: functional, Natural killer cell
[16] = Induction of anti-CD3 antibodies-stimulated human exhausted CD4+ T cell activation assessed fold increase in CTLA4 expression measured by flow cytometry analysis; format: functional, T cell line; also: reference of the scale not given here
[17] = Induction of anti-CD3/CD28 antibodies-stimulated human T cell activation at 1 uM assessed fold increase in IL-2 secretion measured by ELISA assay; format: functional, T cell line
[18] = Induction of activation of human CD56+ CD3- NK cells co-cultured with human K562 cells in 1:1 ratio and assessed as increase in IFN-gamma secretion at 0.625 uM measured by ELISA assay; format: functional, Natural killer cell
[19] = Induction of anti-CD3/CD28 antibodies-stimulated human T cell activation at 4 uM assessed fold increase in CD25 expression measured by ELISA assay; format: functional, T cell line
[20] = Induction of anti-CD3/CD28 antibodies-stimulated human CD4+ T cell activation at 1.11 uM assessed fold increase in cell proliferation measured by flow cytometry analysis; format: functional, T cell line
[21] = Induction of anti-CD3/CD28 antibodies-stimulated human T cell activation at 1.11 uM assessed fold increase in TNF-alpha secretion measured by ELISA assay; format: functional, T cell line
[22] = Induction of anti-CD3 antibodies-stimulated human CD8+ T cell activation at 10 uM assessed fold increase in cell proliferation measured by flow cytometry analysis; format: functional, T cell line; also: reference of the scale not given here
[23] = Induction of anti-CD3/CD28 antibodies-stimulated human CD8+ T cell activation at 1.11 uM assessed fold increase in CD69 expression measured by flow cytometry analysis; format: functional, T cell line
[24] = Induction of activation of human CD56+ CD3- NK cells co-cultured with human K562 cells in 1:1 ratio and assessed as increase in TNF-alpha secretion at 0.625 uM measured by ELISA assay; format: functional, Natural killer cell
[25] = Induction of anti-CD3/CD28 antibodies-stimulated human CD4+ T cell activation at 1.11 uM assessed fold increase in CD69 expression measured by flow cytometry analysis; format: functional, T cell line
[26] = Induction of anti-CD3 antibodies-stimulated human exhausted T cell activation assessed fold increase in IL-2 secretion measured by ELISA assay; format: functional, T cell line; also: reference of the scale not given here
[27] = Induction of anti-CD3/CD28 antibodies-stimulated human CD4+ T cell activation at 10 uM assessed fold increase in CD69 expression measured by flow cytometry analysis; format: functional, T cell line
[28] = Induction of anti-CD3/CD28 antibodies-stimulated human anergic T cell activation at 0.37 uM assessed fold increase in IFN-gamma secretion measured by ELISA assay; format: functional, T cell line
[29] = Induction of anti-CD3/CD28 antibodies-stimulated human anergic T cell activation at 10 uM assessed fold increase in IFN-gamma secretion measured by ELISA assay; format: functional, T cell line
[30] = Induction of anti-CD3 antibodies-stimulated human T cell activation at 8 uM assessed fold increase in IL-2 secretion measured by ELISA assay; format: functional, T cell line; also: reference of the scale not given here
[31] = Induction of anti-CD3 antibodies-stimulated human T cell activation at 1.11 uM assessed fold increase in TNF-alpha secretion measured by ELISA assay; format: functional, T cell line; also: reference of the scale not given here
[32] = Induction of anti-CD3/CD28 antibodies-stimulated human T cell activation at 4 uM assessed fold increase in IL-2 secretion measured by ELISA assay; format: functional, T cell line
[33] = Induction of anti-CD3/CD28 antibodies-stimulated human T cell activation at 10 uM assessed fold increase in GM-CSF secretion measured by ELISA assay; format: functional, T cell line
[34] = Induction of activation of human CD56+ CD3- NK cells co-cultured with human K562 cells in 1:1 ratio and assessed as increase in IFN-gamma secretion at 2.5 uM measured by ELISA assay; format: functional, Natural killer cell
[35] = Induction of anti-CD3 antibodies-stimulated human T cell activation at 8 uM assessed fold increase in CD25 expression measured by ELISA assay; format: functional, T cell line; also: reference of the scale not given here
[36] = Induction of anti-CD3 antibodies-stimulated human exhausted T cell activation assessed fold increase in IFN-gamma secretion measured by ELISA assay; format: functional, T cell line; also: reference of the scale not given here
[37] = Induction of anti-CD3/CD28 antibodies-stimulated human T cell activation at 10 uM assessed fold increase in IFN-gamma secretion measured by ELISA assay; format: functional, T cell line
[38] = Induction of anti-CD3/CD28 antibodies-stimulated human CD8+ T cell activation at 10 uM assessed fold increase in cell proliferation measured by flow cytometry analysis; format: functional, T cell line

Structure (SMILES)	fold change (FC) [1]	fold change (FC) [2]	fold change (FC) [3]	fold change (FC) [4]	AUC [5]	fold change (FC) [6]	fold change (FC) [7]	fold change (FC) [8]	fold change (FC) [9]	fold change (FC) [10]	fold change (FC) [11]	fold change (FC) [12]	fold change (FC) [13]	fold change (FC) [14]	fold change (FC) [15]	fold change (FC) [16]	fold change (FC) [17]	fold change (FC) [18]	fold change (FC) [19]	fold change (FC) [20]	other results
C[C@H](Cc1nncn1C)c1cccc(NC(=O)c2n[nH]c3c2CCC3)c1	1.201	<=2	2.01	<=2	0.5	<=2	<=2	<=1.5	1.01	1.01	1.201	>1.601	<=1.5	0.101	2.01	<=1.4	1.01	1.01	1.01	>4	fold change (FC) [21]: <=1.5; fold change (FC) [22]: 2.01; fold change (FC) [23]: 1.201; fold change (FC) [24]: 1.01; fold change (FC) [25]: 1.401; fold change (FC) [26]: <=2.5; fold change (FC) [27]: 1.201; fold change (FC) [28]: <=2.5; fold change (FC) [29]: <=2.5; fold change (FC) [30]: 0.151; fold change (FC) [31]: <=1.5; fold change (FC) [32]: 2.51; fold change (FC) [33]: 2.01; fold change (FC) [34]: <=1; fold change (FC) [35]: 0.801; fold change (FC) [36]: <=1.4; fold change (FC) [37]: 2.01; fold change (FC) [38]: 2.01
Cn1cnnc1[C@@H]1C[C@@H]1c1cccc(N2Cc3c(ccnc3C(F)(F)F)C2=O)c1	<=1.2	<=2	2.01	<=2	1.01	<=2	<=2	<=1.5	<=1	1.01	1.201	<=1.2	1.51	0.051	2.01	<=1.4	1.01	1.01	1.01	<=2	fold change (FC) [21]: <=1.5; fold change (FC) [22]: <=2; fold change (FC) [23]: <=1.2; fold change (FC) [24]: <=1; fold change (FC) [25]: <=1.2; fold change (FC) [26]: <=2.5; fold change (FC) [27]: 1.401; fold change (FC) [28]: <=2.5; fold change (FC) [29]: 2.51; fold change (FC) [30]: 0.101; fold change (FC) [31]: <=1.5; fold change (FC) [32]: 1.01; fold change (FC) [33]: 2.01; fold change (FC) [34]: <=1; fold change (FC) [35]: 0.801; fold change (FC) [36]: <=1.4; fold change (FC) [37]: <=2; fold change (FC) [38]: 2.01
C[C@H](Cc1nncn1C)c1cccc(N2Cc3c(cc(CN4CC(C)(O)C4)cc3C(F)(F)F)C2=O)c1	>1.601	<=2	2.01	2.01	0.5	2.01	<=2	2.01	2.01	2.51	1.201	>1.601	1.51	0.151	>=5	>1.61	>=7.5	2.01	1.31	>4	fold change (FC) [21]: 2.01; fold change (FC) [22]: >4; fold change (FC) [23]: 1.201; fold change (FC) [24]: 1.01; fold change (FC) [25]: 1.401; fold change (FC) [26]: 2.51; fold change (FC) [27]: 1.401; fold change (FC) [28]: <=2.5; fold change (FC) [29]: >4.01; fold change (FC) [30]: >=0.201; fold change (FC) [31]: 1.51; fold change (FC) [32]: >=7.5; fold change (FC) [33]: >4; fold change (FC) [34]: 2.01; fold change (FC) [35]: >=1.001; fold change (FC) [36]: >1.61; fold change (FC) [37]: >4; fold change (FC) [38]: >4
C[C@H](Cc1nncn1C)c1cccc(N2Cc3c(cc(CN4CC[C@](C)(O)C4)cc3C(F)(F)F)C2=O)c1	>1.601	<=2	2.01	2.01	0.5	3.01	2.01	2.01	2.01	2.51	1.201	>1.601	2.01	0.101	>=5	1.41	5	2.01	1.31	>4	fold change (FC) [21]: 2.01; fold change (FC) [22]: >4; fold change (FC) [23]: 1.201; fold change (FC) [24]: 1.01; fold change (FC) [25]: 1.401; fold change (FC) [26]: 2.51; fold change (FC) [27]: 1.401; fold change (FC) [28]: <=2.5; fold change (FC) [29]: >4.01; fold change (FC) [30]: >=0.201; fold change (FC) [31]: <=1.5; fold change (FC) [32]: >=7.5; fold change (FC) [33]: >4; fold change (FC) [34]: 2.01; fold change (FC) [35]: >=1.001; fold change (FC) [36]: >1.61; fold change (FC) [37]: >4; fold change (FC) [38]: >4
